{"source": "patent USRE37314E", "about": "“Pyrimidine derivatives” (Shionogi Seiyaku Kabushiki Kaisha, priority 1991, dated 2001)", "target": "T1, HMG-CoA reductase (Rattus norvegicus, UniProt P51639)", "T1 construct": "The rat liver microsome sample (100 μl), which was preserved at -80° C; from tissue; host or cells: liver microsomes of Sprague-Dawley rats fed 2% cholestyramine", "T1 sequence (P51639 1-887)": "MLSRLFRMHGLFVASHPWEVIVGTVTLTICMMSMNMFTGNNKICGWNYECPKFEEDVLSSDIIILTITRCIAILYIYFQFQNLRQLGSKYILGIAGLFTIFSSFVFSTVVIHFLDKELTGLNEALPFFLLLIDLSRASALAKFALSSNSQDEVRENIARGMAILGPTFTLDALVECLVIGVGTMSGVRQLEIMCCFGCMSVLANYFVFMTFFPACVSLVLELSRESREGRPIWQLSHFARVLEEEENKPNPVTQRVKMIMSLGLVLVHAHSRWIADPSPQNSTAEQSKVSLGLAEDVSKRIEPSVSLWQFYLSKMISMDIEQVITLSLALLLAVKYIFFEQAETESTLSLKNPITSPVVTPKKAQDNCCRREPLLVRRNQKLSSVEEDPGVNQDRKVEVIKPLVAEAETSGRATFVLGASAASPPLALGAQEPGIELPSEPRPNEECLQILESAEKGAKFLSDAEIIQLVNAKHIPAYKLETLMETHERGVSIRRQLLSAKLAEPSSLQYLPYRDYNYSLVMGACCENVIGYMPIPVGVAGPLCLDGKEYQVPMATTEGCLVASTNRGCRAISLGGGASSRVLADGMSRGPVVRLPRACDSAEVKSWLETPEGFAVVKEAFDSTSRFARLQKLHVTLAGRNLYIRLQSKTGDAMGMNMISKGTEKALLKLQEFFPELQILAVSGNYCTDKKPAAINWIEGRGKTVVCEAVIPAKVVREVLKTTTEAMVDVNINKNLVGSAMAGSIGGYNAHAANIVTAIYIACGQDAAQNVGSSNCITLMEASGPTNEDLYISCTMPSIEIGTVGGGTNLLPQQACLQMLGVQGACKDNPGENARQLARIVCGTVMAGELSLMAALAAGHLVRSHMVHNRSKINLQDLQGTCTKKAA", "test": "HMG-CoA reductase inhibitory effect (rat liver microsome, [14C]HMG-CoA, TLC/scintillation)", "assay_type": "biochemical", "conditions": "comparative activity, with activity of Mevinolin (sodium salt) as reference drug taken as 100, sodium salt of test compound, 37° C., 30 minutes", "procedure": "The HMG-CoA reductase inhibitory effect\n(1) Preparation of rat liver microsome\nSprague-Dawley rats, which were in free access to ordinary dietes containing 2% cholestyramine and water for 2 weeks, were used for the preparation of rat liver microsome. The thus obtained microsome was the purified according to the manner by Juroda et al., Biochem. Biophys. Act, 486, 70 (1977). The microsomal fraction obtained by centrifugation at 105,000×g was washed once with a buffered solution containing 15 mM nicotinamide and 2 mM magnesium chloride (in a 100 mM potassium phosphate buffer, pH 7.4). It was homogenized with a buffer containing nicotinamide and magnesium chloride at the same weight as the liver employed. The thus obtained homogenate was cooled down and kept at -80° C.\n(2) Measurement of the HMG-CoA reductase inhibitory activities\nThe rat liver microsome sample (100 μl), which was preserved at -80° C., was fused at 0° C. and diluted with 0.7 ml of a cold potassium phosphate buffer (100 mM, pH7.4). This was mixed with 0.8 ml of 50 mM EDTA (buffered with the aforementioned potassium phosphate buffer) and 0.4 ml of 100 mM dithiothreitol solution (buffered with the aforementioned potassium phosphate buffer), and the mixture was kept at 0° C. The microsome solution (1.675 ml) was mixed with 670 μl of 25 mM NADPH (buffered with the aformentioned potassium phosphate buffer), and the solution was added to the solution of 0.5 mM [3^-14 ](HMG-CoA (3mCi/mmol). A solution (5 μl) of sodium salt of the test compound dissolved in potassium phosphate buffer is added to 45 μl of the mixture. The resulting mixture was incubated at 37° C. for 30 minutes and cooled. After termination of the reaction by addition of 10 μl of 2N·HCl, the mixture was incubated again at 37° C. for 15 minutes and then 30 μl of this mixture was applied to thin-layer chromatography of silica gel of 0.5 mm in thickness (Merck AG, Art 5744). The chromatograms were developed in toluene/acetone (1/1) and the spot, whose Rf value was between 0.45 to 0.60, were scraped. The obtained products were put into a vial containing 10 ml of scintillator to measure specific radio-activity with scintillation counter.", "data": [{"smiles": "CC(C)c1nc(N(C)S(C)(=O)=O)nc(-c2ccc(F)cc2)c1C=CC(O)CC(O)CC(=O)O", "note": "(single isomer, unassigned) [Compound 1a-1]", "values": [{"measurement": "HMG-CoA reductase inhibitory activities", "result": 442}]}, {"smiles": "CSc1nc(-c2ccc(F)cc2)c(C=CC(O)CC(O)CC(=O)O)c(C(C)C)n1", "note": "(centres unmarked) [Compound 1a-3]", "values": [{"measurement": "HMG-CoA reductase inhibitory activities", "result": 385}]}, {"smiles": "COc1nc(-c2ccc(F)cc2)c(C=CC(O)CC(O)CC(=O)O)c(C(C)C)n1", "note": "(centres unmarked) [Compound 1a-5]", "values": [{"measurement": "HMG-CoA reductase inhibitory activities", "result": 279}]}, {"smiles": "CC(C)c1nc(N(C)NS(C)(=O)=O)nc(-c2ccc(F)cc2)c1C=CC(O)CC(O)CC(=O)O", "note": "(centres unmarked) [Compound 1a-7]", "values": [{"measurement": "HMG-CoA reductase inhibitory activities", "result": 260}]}, {"smiles": "CC[C@H](C)C(=O)O[C@H]1C[C@@H](C)C=C2C=C[C@H](C)[C@H](CC[C@@H](O)C[C@@H](O)CC(=O)O)[C@H]21", "note": "[Mevinolin Na, Mevinolin, reference compound]", "values": [{"measurement": "HMG-CoA reductase inhibitory activities", "result": 100}]}]}
